# Reference: patent publication US20210128492A1, “COMPOSITION FOR PREVENTING AND/OR IMPROVING BRAIN DYSFUNCTION COMPRISING A LUTEIN OR SALT THEREOF AND A PLANT PRODUCT OF THE GENUS TRAPA” (Santen Pharmaceutical Co., Ltd., priority 2017, published 2021)
# How the values were obtained:
# [1] = tested on: Slc:ddY (SPF) mice injected with β-amyloid solution; assay: Y-maze test (spontaneous alternation test) in mice injected with β-amyloid solution; type: in vivo, mouse
# Description: Slc:ddY (SPF:Specific-Pathogen-Free) mice (Supply Resource: Japan SLC, Inc.) received the administration a sample (Vehicle control, Trapa japonica extract, Lutein, or Trapa japonica extract+Lutein) and then the injection of β-amyloid solution. For the mice, Y-maze test was performed to evaluate the improvement effects of Trapa japonica extract, Lutein, and a combination thereof on learning disorder. The test was performed twice. The Y-maze test was performed according to Takayoshi MAMIYA et al., “Effects of Pre-Germinated Brown Rice on β-Amyloid Protein-Induced Learning and Memory Deficits in Mice”, Biol. Pharm. Bull., July 2004, 27(7), 1041-1045 to evaluate the effects.
# Male, 5-week-old, Slc:ddY (SPF) mouse(Body weight: 23˜28 g: n=32)
# According to the following procedure, model mice were made using the above mice: Each mouse was anesthetized with the intraperitoneal administration (dosing volume: 10 mL/kg) of pentobarbital sodium (TOKYO CHEMICAL INDUSTRY CO., LTD.) at 40 mg/kg. After anesthesia, levobupivacaine hydrochloride (POPSCAINE® 0.25% injection, Maruishi Pharmaceutical Co., Ltd.) (0.1 mL) was administered subcutaneously into the scalp of the mouse. The hair on the top of the mouse was trimmed, and the head part was fixed to a brain stereotactic device. The scalp of the mouse was sterilized with iodine tincture, and then the head part was incised to expose the skull and the connective tissue on the skull was removed with a cotton swab. The treated skull was dried with a blower to find the position of bregma more easily. A hole for inserting a stainless steel pipe was drilled in the skull at 1 mm to the right and 0.2 mm behind bregma with a dental drill. The stainless steel pipe connected to a silicon tube with an outside diameter of 0.5 mm and a micro syringe was perpendicularly inserted to a depth of 2.5 mm from the bone surface. 3 μL of a β-amyloid solution ([…]) was injected (in the sham operation group, 3 μL of water for injection was injected) into the cerebral ventricle with a microsyringe pump for 3 minutes. After the injection, the inserted stainless steel pipe was allowed to stand for 3 minutes, and then the pipe was slowly removed. After removing the stainless steel pipe, the cranial was closed with a non-absorbable myelostatic agent (NESTOP®, Alfresa Pharma Co., Ltd.) and the scalp was sutured. The mouse were removed from the brain stereotactic device and returned to the breeding cage.
# The β-amyloid solution was prepared by dissolving β-amyloid (Amyloid-β Protein(25-35); Polypeptide Laboratories) to 2 mM with water for injection and incubating the solution in the constant temperature storage at 37° C. for 4 days. Water for injection was used as the vehicle for sham operation. […]
# [2] = tested on: pyramidal cell layer of the hippocampus CA1 region; assay: Histopathological assessment of KB stained brain specimens from the mice of Test Example 1; type: in vivo, mouse
# Description: The brain was isolated from the mice in each group of Test Example 1 to prepare histopathological specimens, and the histopathological assessment of the prepared histopathological specimens was performed. Such test was performed twice. Each mouse in each group of Test Example 1 was anesthetized with an isoflurane solution and the chest of the mouse was opened to expose the heart. The exposed heart was cut into the auricle thereof. A polypropylene disposable syringe with an injection needle was used, the injection needle thereof was inserted from left ventricle and about 30 mL of ice-cooled saline was injected into the heart, and then the heart was perfused with about 30 mL of 10 vol % formalin neutral buffer solution. […] The isolated brain was embedded in paraffin according to any conventional method, one histopathological section was discontinuously prepared at around bregma-1.70 mm and around bregma-2.80 mm, respectively, and then Klüver-Barrera stained (KB stained) tissue specimens were prepared from each section. The cut brain was stored in 10 vol % formalin neutral buffer solution. • 1) For each specimen, the images of pyramidal cell layers of the hippocampus CA1 region closest to bregma-1.70 mm and bregma-2.80 mm from the optical microscope image (George Paxinos and Keith B. J. Franklin. (2013). The Mouse Brain in stereotaxic coordinates.
# [3] = 8 minutes, about 1 hour after administration on the 14th day, gavage once per day for 14 days (Trapa japonica extract 2 mg/kg, Lutein 0.4 mg/kg, combination 2 + 0.4 mg/kg), β-amyloid on day 8, average of n=10
# [4] = β-amyloid model mice, 14 days gavage
smiles,measurement,setting,value
"CC1=C[C@H](O)CC(C)(C)[C@H]1/C=C/C(C)=C/C=C/C(C)=C/C=C/C=C(C)/C=C/C=C(C)/C=C/C1=C(C)C[C@@H](O)CC1(C)C [Lutein, (3R,3′R,6′R)-β,ε-carotene-3,3′-diol]",Spontaneous alternation rate,[1]; [3],59.3%
same,The number of spontaneous alternation,[1]; [3],21.2 Count
same,The total number of entries,[1]; [3],37.0 Count
same,Spontaneous alternation rate as compared to the vehicle control group (in words),[1]; [4],not improved
same,Area of pyramidal cell layer,"[2]; hippocampus CA1 region, KB stained specimens, mice of Test Example 1 (gavage 14 days; Trapa japonica extract 2 mg/kg, Lutein 0.4 mg/kg, combination 2 + 0.4 mg/kg), average of n=2",224874 μm^2
same,Area of pyramidal cell layer of the hippocampus CA1 region as compared to the vehicle control group (in words),[2]; [4],increased
